Source: patent US9561228B2 (Celgene Avilomics Research, Inc., priority 2013, dated 2017)
Where two headings read alike, the source gives them in different places.

What was measured:
[1] = tested on: ERK1/2 phosphorylation of p90RSK in HT29 cells; test: pRSK MSD Assay in HT29 cells; assay type: cell-based; conditions: Homo sapiens, HT-29, read-out: ERK1/ERK2 PRSK MSD HT29 EC50
Outline: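 Phospho-RSK level, read by electrochemiluminescence on RSK-antibody-coated MSD plates with a phospho-RSK/Sulfo-tag detection pair, reports cellular ERK1/2 activity. HT29 cells, kept overnight in 0.1% FBS medium, were exposed to compound for 120 min at 37° C before lysis.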

[2] = tested on: HT-29 cells (colorectal adenocarcinoma); test: Inhibition of cancer cell proliferation, HT-29 (CellTiterGlo, 72 hours); assay type: cell-based; conditions: Homo sapiens
Outline: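 Proliferation over 72 h at 37° C was read by CellTiterGlo luminescence, translated to cell counts with a cell-density standard curve (390–50,000 cells). Compound added as 3-fold dilutions from a 5,000 nM two-fold stock to 3000 seeded HT-29 cells; GI50 from percent inhibition relative to untreated wells.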

[3] = molecular target: T1, Erk1 (Homo sapiens, UniProt P27361); test: Protein Mass Modification Assay (intact protein MALDI, 60 min, 10-fold excess of compound); assay type: binding
T1 construct: purchased Millipore 14-439
Description: Protein Mass Modification Assay
Intact protein: Erk1 from Millipore (Cat. No. 14-439) was incubated for 60 min. at room temperature with a 10-fold excess of test compound to protein. 4 μL aliquots of the resulting mixture were diluted with 15 μL of 0.2% TFA prior to micro C4 ZipTipping directly onto the MALDI target using sinapinic acid as the desorption matrix (10 mg/ml in 0.1% TFA:Acetonitrile 50:50, v/v). The centroid mass of the target protein in the control sample was compared with the centroid mass of the target protein incubated with compound. A shift in the centroid mass of the treated protein compared to the untreated protein was divided by the molecular weight of the compound. This number corresponds to the percentage of modified protein after one hour incubation. Results from this assay are reported in Table A under the column “ERK1 Mass Mod (%).”

[4] = molecular target: T2, MEK1 activated ERK1 (Homo sapiens, UniProt P27361); test: Omnia continuous-read kinase assay for potency against MEK1 activated ERK1; assay type: biochemical
T2 construct: purchased Millipore (Billerica, Mass.) 14-439-K
Outline: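 Apparent IC50 came from initial reaction slopes (RFU vs time) plotted against log inhibitor with a variable-slope fit. Reactions were started with ERK1 (4 nM final) added to 50 μM ATP, roughly at its appKM, and 10 μM Sox-conjugated ST17 peptide in 20 mM Tris pH 7.5, 5 mM MgCl2. Fluorescence was monitored every 71 seconds.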

[5] = tested on: ERK1/2 phosphorylation of p90RSK in A375 cells; test: Detection of total and phosphor-RSK by MSD ELISA (A375); assay type: cell-based; conditions: Homo sapiens, A-375, read-out: ERK1/ERK2 PRSK A375 EC50
Description: Detection of Total and Phosphor-RSK by MSD ELISA (A375)
(§1) The protocol below describes an assay to measure the kinase activity of ERK1/2 to phosphorylate a substrate, p90RSK, in the presence or absence of a test compound.
A375 cells were grown in DMEM/10% FBS. Twenty four hours prior to the assay, 50,000 cells per well were plated in a 96 well flat bottom plate. Once cells attached to the plate, the medium was replaced with 100 ul of DMEM/0.1% FBS. Cells were cultured overnight in an incubator at 37° C.
Compound stock solutions of 10 mM in DMSO were prepared. 1000× dilutions were then prepared in DMSO. 1 uL of DMSO solution was then transferred to 1 ml DMEM/0.1% FBS in a deep well plate. Cell plate media was discarded, followed by addition of 100 uL of the compound-containing media. The preparation was incubated at 37° C. for 2 hrs.
Cell lysates were prepared as described below.
pRSK or Total RSK MSD Assay
(§2) MSD plates: Blank MSD plates were coated with 30 uL capture antibody (BD 610226) at a final concentration of 1 ug/mL in PBS. Both pRSK and total RSK MSD assays used the same capture antibody at the same concentration. Antibody stock concentration was 250 ug/mL. Once antibody solution was added to the MSD plate, the sides were tapped to be certain it was coated completely (visual inspection). It was then covered and placed at 4° C. overnight on a level surface.
(§3) Block MSD Plate: The coating antibody was removed and the plate was washed on a plate washer in MSD wash buffer. The last bit of wash solution was tapped out and 150 uL/well of 3% BSA in MSD wash buffer was added in. The preparation was placed on a shaker at room temperature for at least an hour.
Add samples: Media was removed from compound-treated cells and replaced with 55 uL/well MSD cell lysis buffer containing protease and phosphotase I & II inhibitors. The preparation was incubated on a shaker in a cold room for 30-45 min. The blocked MSD plate was washed a on plate washer, tapping out the last bit of wash solution, followed by addition of 50 uL (of the 55 ul) cell lysate in a well-well transfer. The preparation was covered and incubated on a shaker at room temp for 2 hours. The lysate was removed, washed on a plate washer 3 times, and the last bit of wash buffer was tapped out and replace with 25 uL/well detection antibody (described below).
For pRSK detection, a pRSK antibody stock of 21 ug/mL was prepared as follows: 1 ug/mL pRSK Ser380 antibody (Cell Signaling Technology, Cat. #9335)+1:750 anti-rabbit SulfoTag (Mesoscale Discovery, Cat. # R32AB-1) in 1% BSA in MSD wash buffer.
(§4) For total RSK detection, a total RSK antibody stock of 200 ug/mL was prepared as follows: 1 ug/mL total RSK (Santa Cruz sc-231G) antibody+1:750 anti-goat SulfoTag (from MSD, R32AG-1) in 1% BSA in MSD wash buffer.
The plate was incubated for 1 hr at room temperature on a shaker, followed by three washings. The last bit of wash buffer was tapped out. 150 uL/well 1×MSD Read buffer was added and the plate was then analyzed.

[6] = tested on: ERK1/2 phosphorylation of p90RSK in HCT116 cells; test: Detection of total and phospho-RSK by MSD ELISA (HCT116); assay type: cell-based; conditions: Homo sapiens, HCT-116, read-out: ERK1/ERK2 PRSK HCT116 EC50
Description: Detection of Total and Phospho-RSK by MSD ELISA (HCT116)
as §1
HCT116 cells were grown in RPMI/10% FBS. Prior to the assay, 50,000 cells per well were plated in a 96 well flat bottom plate. Cells were cultured overnight in an incubator at 37° C.
Compound stocks were 10 mM in DMSO. A 1000× dilution was made in DMSO. 1 uL of the DMSO solution was transferred to 1 ml RPMI/10% FBS in a deep well plate. Media in the cell plate was discarded, and 100 uL of the compound-containing media was added. The preparation was incubated at 37° C. for 2 hrs.
Preparation of cell lysates are described below.
pRSK or total RSK MSD Assay
as §2, with “to” for “to the”
as §3, with “uL/well” for “uL/well of”, “BSA (MSD Blocker A)” for “BSA”, “added.” for “added in.”
Add samples: Media was removed from compound-treated cells and replaced with 55 uL/well MSD cell lysis buffer containing protease and phosphotase I & II inhibitors. The preparations was incubate on a shaker in a cold room for 30-45 min. The blocked MSD plate was washed on a plate washer, and the last bit of wash solution was tapped out. Next was added 50 uL (of the 55 uL) cell lysate in a well-well transfer. The preparation was covered and incubated on shaker at room temp for 2 hours. The lysate was then removed and washed on plate washer 3 times. The last bit of wash buffer was then tapped out and replaced with 25 uL/well detection antibody (described below).
For pRSK detection, a pRSK antibody stock of 21 ug/mL was prepared as follows: 1 ug/mL pRSK Ser380 antibody (Cell Signaling Technology, Cat. #9335)+1:750 anti-rabbit SulfoTag (from MSD, R32AB-1) in 1% BSA in MSD wash buffer.
as §4
The plate was incubated for 1 hr at room temperature on a shaker, followed by three washes. The last bit of wash buffer was tapped out. Next, 150 uL/well 1×MSD Read buffer was added and the plate was analyzed by the MSD reader.

[7] = MEK1 activated ERK1, ATP at KM, read-out: ERK1 Omnia WT ATP KM IC50

T1 sequence (P27361 whole entry): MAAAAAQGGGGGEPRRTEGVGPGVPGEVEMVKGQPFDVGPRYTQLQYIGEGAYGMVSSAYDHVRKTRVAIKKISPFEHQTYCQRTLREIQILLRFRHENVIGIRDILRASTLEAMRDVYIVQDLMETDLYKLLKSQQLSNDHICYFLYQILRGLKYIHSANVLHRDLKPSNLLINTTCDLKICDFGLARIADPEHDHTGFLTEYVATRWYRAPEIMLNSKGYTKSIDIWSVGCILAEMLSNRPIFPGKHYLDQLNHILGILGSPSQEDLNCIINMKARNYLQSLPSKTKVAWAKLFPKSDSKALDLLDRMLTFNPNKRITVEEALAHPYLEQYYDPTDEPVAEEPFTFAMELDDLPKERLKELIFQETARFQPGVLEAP
T2 sequence (P27361 whole entry): as above

EC50 [1] | GI50 [2] | ERK1 Mass Mod (%) [3] | EC50 [5] | IC50 ([4]; ATP at KM, WT) | EC50 [6] | SMILES | IC50 [4, 7]
501 to 999 nM | > 1000 nM | E (a mass modification of ≧70%) |  |  |  | C=CC(=O)Nc1cc(OC)ccc1Nc1nc(Nc2ccc(N3CCC[C@@H]3C(N)=O)cc2C#N)ncc1Cl [Compound I-180, (R)-1-(4-((4-((2-acrylamido-4-methoxyphenyl)amino)-5-chloropyrimidin-2-yl)amino)-3-cyanophenyl)pyrrolidine-2-carboxamide] | 501 to 999 nM
501 to 999 nM | 501 to 999 nM | E (a mass modification of ≧70%) |  |  |  | C=CC(=O)Nc1ccccc1Nc1nc(N[C@@H]2CCC[C@H](C(N)=O)C2)ncc1C(F)(F)F [Compound I-7, (1S,3R)-3-((4-((2-acrylamidophenyl)amino)-5-(trifluoromethyl)pyrimidin-2-yl)amino)cyclohexanecarboxamide] | 
> 1000 nM | > 1000 nM | G (a mass modification ≦30%) |  |  |  | C=CC(=O)Nc1ccccc1Nc1nc(N[C@H]2CCCN(C(=O)CCCC(=O)NCCCOCCOCCOCCCNC(=O)CCCC[C@@H]3SC[C@@H]4NC(=O)N[C@@H]43)C2)ncc1Cl [Compound I-303, 5-((S)-3-((4-((2-acrylamidophenyl)amino)-5-chloropyrimidin-2-yl)amino)piperidin-1-yl)-5-oxo-N-(15-oxo-19-((3aS,4S,6aR)-2-oxohexahydro-1H-thieno[3,4-d]imidazol-4-yl)-4,7,10-trioxa-14-azanonadecyl)pentanamide] | 
501 to 999 nM |  | E (a mass modification of ≧70%) | > 1000 nM | > 1000 nM |  | C=CC(=O)Nc1cc(CN2CCN(C)CC2)ccc1Nc1nc(Nc2cc(OC)ncc2C)ncc1C(F)(F)F [Compound I-380, N-(2-((2-((2-methoxy-5-methylpyridin-4-yl)amino)-5-(trifluoromethyl)pyrimidin-4-yl)amino)-5-((4-methylpiperazin-1-yl)methyl)phenyl)acrylamide] | 
 |  | G (a mass modification ≦30%) | > 1000 nM |  | > 1000 nM | COc1cc(Nc2ncc(C(F)(F)F)c(Nc3ccc(C)cc3N)n2)c(C)cn1 [Compound I-353, N^4-(2-amino-4-methylphenyl)-N^2-(2-methoxy-5-methylpyridin-4-yl)-5-(trifluoromethyl)pyrimidine-2,4-diamine] | 
> 1000 nM |  | G (a mass modification ≦30%) |  |  |  | C=C(C)S(=O)(=O)Nc1cc(C)ccc1Nc1nc(Nc2cc(C(C)=O)ccc2C)ncc1C(F)(F)F [Compound I-98, N-(2-((2-((5-acetyl-2-methylphenyl)amino)-5-(trifluoromethyl)pyrimidin-4-yl)amino)-5-methylphenyl)prop-1-ene-2-sulfonamide] | 101 to 500 nM

SMILES | EC50 [1] | GI50 [2] | ERK1 Mass Mod (%) [3] | EC50 [5] | IC50 ([4]; ATP at KM, WT) | EC50 [6] | IC50 [4, 7]
C=CC(=O)Nc1ccccc1Nc1nc(Nc2cc(C(=O)NOCCO)ccc2C)ncc1C(F)(F)F [Compound I-73, 3-((4-((2-Acrylamidophenyl)amino)-5-(trifluoromethyl)pyrimidin-2-yl)amino)-N-(2-hydroxyethoxy)-4-methylbenzamide] | 101 to 500 nM | 101 to 500 nM | E (a mass modification of ≧70%) |  |  |  | 101 to 500 nM
C=CC(=O)Nc1ccccc1Nc1nc(N[C@H]2CCC[C@@H](CO)C2)ncc1Cl (racemic) [Compound I-121, Rac-cis-N-(2-((5-chloro-2-((3-(hydroxymethyl)cyclohexyl)amino)pyrimidin-4-yl)amino)phenyl)acrylamide] | < 100 nM | < 100 nM | E (key: E: a mass modification of ≧70%; F: a mass modification of 31-69%; G: a mass modification ≦30%) |  |  |  | < 100 nM
C=CC(=O)Nc1ccccc1Nc1nc(Nc2cc(C(N)=O)ccc2C(F)(F)F)ncc1Cl [Compound I-220, 3-((4-((2-acrylamidophenyl)amino)-5-chloropyrimidin-2-yl)amino)-4-(trifluoromethyl)benzamide] | 501 to 999 nM |  | E (a mass modification of ≧70%) |  |  |  | 101 to 500 nM
C=C(C)S(=O)(=O)Nc1cc(F)ccc1Nc1nc(Nc2cc(C(C)=O)ccc2C)ncc1Cl [Compound I-243, N-(2-((2-((5-acetyl-2-methylphenyl)amino)-5-chloropyrimidin-4-yl)amino)-5-fluorophenyl)prop-1-ene-2-sulfonamide] | > 1000 nM |  | G (a mass modification ≦30%) |  |  |  | > 1000 nM
